In ChEMBL document CHEMBL5154818, “Development of oxoisoaporphine derivatives with topoisomerase I inhibition and reversal of multidrug resistance in breast cancer MCF-7/ADR cells” (Eur J Med Chem, 2022):
The source made the active and inactive calls. No cut-off for these calls is given here.

Tests used:
[1] = tested on: HepG2; assay: Antiproliferative activity against human HepG2 cells after 48 hrs by MTT assay; type: functional, cell-based; conditions: HepG2, 48 h
[2] = target: T1, ATP-dependent translocase ABCB1 (Homo sapiens, UniProt P08183); assay: Inhibition of P-gp-mediated multidrug resistance in human MCF7/ADR cells at 10 to 20 uM assessed as adriamycin accumulation treated with adriamycin measured after 24 hrs by flow cytometry; type: cell-based; conditions: nci/adr-res, dose 10-20 µM
[3] = tested on: MCF7; assay: Induction of cell cycle arrest in human MCF7 cells assessed accumulation of cells at S phase at 4 uM measured after 48 hrs by propidium iodide staining based flow cytometric analysis (reference value: 27.53%); type: functional
[4] = tested on: L02; assay: Antiproliferative activity against human L02 cells after 48 hrs by MTT assay; type: functional, cell-based; conditions: L02, 48 h
[5] = tested on: MCF7; assay: Induction of cell cycle arrest in human MCF7 cells assessed accumulation of cells at G1 phase at 4 uM measured after 48 hrs by propidium iodide staining based flow cytometric analysis (reference value: 45.94%); type: functional
[6] = Toxicity in BALB/c nude mouse xenografted with human MCF7 cells assessed as spleen tissue damage at 1 to 10 mg/kg, ip administered 3 times a week for 3 weeks; type: organism-based; conditions: in vivo, 504 h, dose 1-10 mg/kg
[7] = target: T1, ATP-dependent translocase ABCB1; assay: Inhibition of P-gp-mediated multidrug resistance in human MCF7/ADR cells assessed as decrease in P-gp expression at 20 uM measured after 24 hrs by Western blot analysis; type: cell-based; conditions: NCI/ADR-RES
[8] = Toxicity in BALB/c nude mouse xenografted with human MCF7 cells assessed as lung tissue damage at 1 to 10 mg/kg, ip administered 3 times a week for 3 weeks; type: organism-based; conditions: in vivo, 504 h, dose 1-10 mg/kg
[9] = Toxicity in BALB/c nude mouse xenografted with human MCF7 cells assessed as kidney tissue damage at 1 to 10 mg/kg, ip administered 3 times a week for 3 weeks; type: organism-based; conditions: in vivo, 504 h, dose 1-10 mg/kg
[10] = tested on: MCF7; assay: Induction of cell cycle arrest in human MCF7 cells assessed accumulation of cells at G2 phase at 4 uM measured after 48 hrs by propidium iodide staining based flow cytometric analysis (reference value: 37.81%); type: functional
[11] = tested on: MCF7; assay: Induction of apoptosis in human MCF7 cells assessed as increase in cleaved PARP expression 1.5 to 6 uM incubated for 24 hrs by Western blotting analysis; type: functional, cell-based; conditions: dose 1.5-6 µM
[12] = organism: Danio rerio; assay: Induction of apoptosis in zebrafish embryo assessed as increase intracellular ROS level at 0.01 to 1 uM measured by DCFH-DA dye based flow cytometric analysis; type: functional, organism-based; conditions: dose 0.01-1 µM
[13] = target: T1, ATP-dependent translocase ABCB1; assay: Inhibition of P-gp-mediated multidrug resistance in human MCF7/ADR cells at 10 to 20 uM assessed as rhodamine123 accumulation treated with rhodamine123 measured after 24 hrs by flow cytometry; type: cell-based; conditions: nci/adr-res, dose 10-20 µM
[14] = Toxicity in BALB/c nude mouse xenografted with human MCF7 cells assessed as heart tissue damage at 1 to 10 mg/kg, ip administered 3 times a week for 3 weeks; type: organism-based; conditions: in vivo, 504 h, dose 1-10 mg/kg
[15] = tested on: MCF7; assay: Induction of cell cycle arrest in human MCF7 cells assessed accumulation of cells at S phase at 8 uM measured after 48 hrs by propidium iodide staining based flow cytometric analysis (reference value: 27.53%); type: functional
[16] = tested on: MCF7; assay: Induction of apoptosis in human MCF7 cells assessed as increase in cleaved caspase-3 expression 1.5 to 6 uM incubated for 24 hrs by Western blotting analysis; type: functional, cell-based; conditions: dose 1.5-6 µM
[17] = tested on: NCI/ADR-RES; assay: Induction of apoptosis in human MCF7/ADR cells assessed as decrease in Bcl-2 expression at 5 to 20 uM measured after 24 hrs by Western blotting analysis; type: functional, cell-based; conditions: dose 5-20 µM
[18] = tested on: MCF7; assay: Induction of cell cycle arrest in human MCF7 cells assessed accumulation of cells at G2 phase at 8 uM measured after 48 hrs by propidium iodide staining based flow cytometric analysis (reference value: 37.81%); type: functional
[19] = tested on: Calf thymus DNA; assay: Binding affinity to calf thymus DNA assessed as red shift in absorption spectra at 20 uM by UV-vis absorption spectroscopy; type: nucleic-acid assay; conditions: Bos taurus
[20] = Toxicity in BALB/c nude mouse xenografted with human MCF7 cells assessed as liver tissue damage at 1 to 10 mg/kg, ip administered 3 times a week for 3 weeks; type: organism-based; conditions: in vivo, 504 h, dose 1-10 mg/kg
[21] = target: T1, ATP-dependent translocase ABCB1; assay: Inhibition of P-gp-mediated multidrug resistance in human MCF7/ADR cells assessed as decrease in P-gp expression at 10 uM measured after 24 hrs by Western blot analysis; type: cell-based; conditions: NCI/ADR-RES
[22] = tested on: MCF7; assay: Induction of cell cycle arrest in human MCF7 cells assessed accumulation of cells at G1 phase at 2 uM measured after 48 hrs by propidium iodide staining based flow cytometric analysis (reference value: 45.94%); type: functional
[23] = tested on: NCI/ADR-RES; assay: Induction of apoptosis in human MCF7/ADR cells assessed as increase in Bad expression at 5 to 20 uM measured after 24 hrs by Western blotting analysis; type: functional, cell-based; conditions: dose 5-20 µM
[24] = tested on: MCF7; assay: Induction of cell cycle arrest in human MCF7 cells assessed accumulation of cells at G1 phase at 8 uM measured after 48 hrs by propidium iodide staining based flow cytometric analysis (reference value: 45.94%); type: functional
[25] = tested on: NCI/ADR-RES; assay: Induction of apoptosis in human MCF7/ADR cells assessed as increase in apoptotic rate at 2 to 8 uM measured after 48 hrs by Annexin V-FITC/propidium iodide staining based flow cytometry analysis; type: functional; conditions: dose 2-8 µM
[26] = tested on: NCI/ADR-RES; assay: Induction of apoptosis in human MCF7/ADR cells assessed as increase intracellular ROS level at 0.1 uM measured by DCFH-DA dye based flow cytometric analysis; type: functional, cell-based
[27] = tested on: MDA-MB-231; assay: Antiproliferative activity against human MDA-MB-231 cells after 48 hrs by MTT assay; type: functional, cell-based; conditions: MDA-MB-231, 48 h
[28] = tested on: A549; assay: Antiproliferative activity against human A549 cells after 48 hrs by MTT assay; type: functional, cell-based; conditions: A549, 48 h
[29] = tested on: MCF7; assay: Induction of cell cycle arrest in human MCF7 cells assessed accumulation of cells at S phase at 2 uM measured after 48 hrs by propidium iodide staining based flow cytometric analysis (reference value: 27.53%); type: functional
[30] = tested on: MCF7; assay: Antiproliferative activity against human MCF7 cells after 48 hrs by MTT assay; type: functional, cell-based; conditions: MCF7, 48 h
[31] = tested on: MCF7; assay: Antiproliferative activity against human MCF7 cells assessed as growth inhibition at 3 uM after 48 hrs by MTT assay relative to control; type: functional; conditions: read-out: GI
[32] = tested on: NCI/ADR-RES; assay: Antiproliferative activity against human MCF7/ADR cells after 48 hrs by MTT assay; type: functional, cell-based
[33] = tested on: MCF7; assay: Induction of apoptosis in human MCF7 cells assessed as late apoptotic cells at 2 to 8 uM incubated for 48 hrs by Annexin V-FITC/propidium iodide staining based flow cytometry analysis; type: functional; conditions: dose 2-8 µM
[34] = tested on: MCF7; assay: Induction of apoptosis in human MCF7 cells assessed as early apoptotic cells at 2 to 8 uM incubated for 48 hrs by Annexin V-FITC/propidium iodide staining based flow cytometry analysis; type: functional; conditions: dose 2-8 µM
[35] = tested on: NCI/ADR-RES; assay: Reversal of multidrug resistant activity in human MCF7/ADR cells after 48 hrs by MTT assay; type: functional, cell-based
[36] = tested on: MCF7; assay: Induction of cell cycle arrest in human MCF7 cells assessed accumulation of cells at G2 phase at 2 uM measured after 48 hrs by propidium iodide staining based flow cytometric analysis (reference value: 37.81%); type: functional

T1 sequence (P08183 whole entry): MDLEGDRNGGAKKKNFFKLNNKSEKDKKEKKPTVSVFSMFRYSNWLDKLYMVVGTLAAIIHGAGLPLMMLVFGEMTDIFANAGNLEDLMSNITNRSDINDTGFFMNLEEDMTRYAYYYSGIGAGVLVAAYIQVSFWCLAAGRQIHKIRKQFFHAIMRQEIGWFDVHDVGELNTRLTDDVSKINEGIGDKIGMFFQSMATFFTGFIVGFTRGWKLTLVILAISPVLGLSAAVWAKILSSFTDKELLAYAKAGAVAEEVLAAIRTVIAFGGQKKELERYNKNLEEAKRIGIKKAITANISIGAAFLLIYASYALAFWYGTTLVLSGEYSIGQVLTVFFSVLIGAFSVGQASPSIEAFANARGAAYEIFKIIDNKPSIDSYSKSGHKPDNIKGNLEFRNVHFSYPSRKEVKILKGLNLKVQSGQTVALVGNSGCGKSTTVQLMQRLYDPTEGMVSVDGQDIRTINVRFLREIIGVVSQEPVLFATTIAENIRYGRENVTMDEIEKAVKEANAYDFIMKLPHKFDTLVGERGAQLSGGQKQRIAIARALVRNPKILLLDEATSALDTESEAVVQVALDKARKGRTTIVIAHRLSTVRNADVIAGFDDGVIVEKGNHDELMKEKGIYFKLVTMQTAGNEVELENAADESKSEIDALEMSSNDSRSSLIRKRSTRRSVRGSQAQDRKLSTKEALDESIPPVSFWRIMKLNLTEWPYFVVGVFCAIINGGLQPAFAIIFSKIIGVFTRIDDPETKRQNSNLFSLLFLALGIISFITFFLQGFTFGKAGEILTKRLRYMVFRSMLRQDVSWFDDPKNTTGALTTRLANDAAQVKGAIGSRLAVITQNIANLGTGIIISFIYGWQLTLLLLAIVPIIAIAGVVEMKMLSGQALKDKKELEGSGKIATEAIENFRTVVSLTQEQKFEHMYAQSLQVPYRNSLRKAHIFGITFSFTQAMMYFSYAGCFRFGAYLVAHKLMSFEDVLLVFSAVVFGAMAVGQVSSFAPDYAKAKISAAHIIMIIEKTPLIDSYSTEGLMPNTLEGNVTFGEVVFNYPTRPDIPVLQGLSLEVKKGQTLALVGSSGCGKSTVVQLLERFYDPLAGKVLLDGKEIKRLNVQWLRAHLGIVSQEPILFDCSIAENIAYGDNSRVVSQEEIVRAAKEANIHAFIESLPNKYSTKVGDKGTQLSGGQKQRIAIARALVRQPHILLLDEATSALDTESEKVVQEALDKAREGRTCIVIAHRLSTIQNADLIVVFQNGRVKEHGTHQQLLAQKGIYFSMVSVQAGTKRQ

With `CC1CCCCN1CCOc1ccc2c3c(nccc13)-c1ccccc1C2=O` (stereo unspecified) as the compound, how does the IC50 [1] read?
The IC50 was 4.88 µM.

What about the “inhibition (INH)” value [2] of the same compound?
The value was “Active”.

And the Activity [3]?
Its Activity is 25.08%.

What about the IC50 [4] of the same compound?
The IC50 was 36.5 µM.

And the Activity [5]?
The Activity was 51.07%.

And the Activity [6]?
The Activity was “Non-Toxic”.

And the inhibition at 20 µM [7]?
The inhibition at 20 µM was 18.1%.

What about the Activity [8] of the same compound?
Its Activity is “Non-Toxic”.

And the Activity [9]?
The Activity was “Non-Toxic”.

What about the Activity [10] of the same compound?
Its Activity is 32.26%.

And the Activity [11]?
Its Activity is “Active”.

What about the Activity [12] of the same compound?
Its Activity is “Active”.

What about the “inhibition (INH)” value [13] of the same compound?
The value was “Active”.

What about the Activity [14] of the same compound?
The Activity was “Non-Toxic”.

What about the Activity [15] of the same compound?
The Activity was 24.3%.

And the Activity [16]?
The Activity was “Active”.

What about the Activity [17] of the same compound?
Its Activity is “Active”.

What about the Activity [18] of the same compound?
Its Activity is 31.38%.

What about the OD [19] of the same compound?
Its OD is 2.2 nm.

What about the Activity [20] of the same compound?
The Activity was “Non-Toxic”.

What about the inhibition at 10 µM [21] of the same compound?
The inhibition at 10 µM was 14.9%.

And the Activity [22]?
The Activity was 49.45%.

And the Activity [23]?
Its Activity is “Active”.

And the Activity [24]?
The Activity was 53.27%.

What about the Activity [25] of the same compound?
The Activity was 15.2%.

And the Activity [26]?
The Activity was “Active”.

And the IC50 [27]?
The IC50 was 2.42 µM.

And the IC50 [28]?
The IC50 was 2.39 µM.

What about the Activity [29] of the same compound?
The Activity was 25.72%.

What about the IC50 [30] of the same compound?
The IC50 was 1.32 µM.

And the inhibition of growth at 3 µM [31]?
The inhibition of growth at 3 µM was 24.4%.

And the IC50 [32]?
Its IC50 is 7.64 µM.

And the Activity [33]?
The Activity was 59.5%.

And the Activity [34]?
Its Activity is 5.4%.

And the IC50 [35]?
Its IC50 is 0.9 µM.

And the Activity [36]?
The Activity was 33.28%.
